Here are results for 23 compounds from ChEMBL document CHEMBL1201862, “PubChem BioAssay data set” (2004).

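Interpolation was linear, between the two tested concentrations surrounding the appropriate level; five concentrations were tested over 48 hours in 96-well plates. Abbreviation: GI50, concentration required for 50% inhibition of growth.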 Activity calls are given as the source filed them. Rule as the data show it: active = GI50 up to about 1.1 µM and inactive = higher.

Some test systems named below: DLD-1; HOP-18; SNB-78; DMS-114; DMS-273; XF498; LXFL 529; KM-20L2; RXF 631.
What all share (assay): NCI tumour cell line growth inhibition, 48 h

Take `COc1ccc([C@H]2CC(=O)NCCCCN2)cc1`: the GI50 in the test with DLD-1, in the test with HOP-18, in the test with SNB-78, with DMS-114, with DMS-273 and in the test with XF498 was > 100 µM (inactive) throughout. Also, the GI50 with LXFL 529 and in the test with KM-20L2 was > 100 µM (inactive) in each case.

`CC(C)[C@H]1CO[C@@H]2O[C@H](C)CC(=O)N21`: the GI50 in the test with DLD-1, with HOP-18, in the test with DMS-114, with LXFL 529 and in the test with KM-20L2 was > 100 µM (inactive) in each case.

For the compound `O=C(N/C(=C\c1ccc(Oc2ccc(Cl)c(Cl)c2)cc1)c1nc2ccccc2[nH]1)c1ccccc1`, the GI50 in the test with DLD-1 is 17.7 µM (inactive); with SNB-78 it was 20.4 µM (inactive); in the test with DMS-273, 21.2 µM (inactive); with XF498, 16.8 µM (inactive); with LXFL 529 it was 12.5 µM (inactive); in the test with KM-20L2, 17.7 µM (inactive).

Take `CCN(CC)CCn1c2ccccc2c(=O)c2c(OC)ccc(OC)c21`: the GI50 with SNB-78 is 40.6 µM (inactive); with DMS-273 it was 37.3 µM (inactive); with XF498 it was 87.5 µM (inactive); in the test with LXFL 529 it was 68.5 µM (inactive); in the test on KM-20L2, 45.2 µM (inactive).

Regarding `CC(=O)OCC1=CC2CCC3C(C)(CCC[C@]3(C)COC(C)=O)C23CC[C@H]1C3` (some centres not stated), the GI50 is 51.6 µM (inactive) in the test with DLD-1; > 100 µM (inactive) with HOP-18; > 100 µM (inactive) with RXF 631; 12.9 µM (inactive) in the test with DMS-114; 29.6 µM (inactive) in the test with DMS-273; 33.8 µM (inactive) in the test on XF498. Further, the GI50 in the test on LXFL 529 is 29.2 µM (inactive); in the test with KM-20L2 it was 41 µM (inactive).

On to `CCCCCCCCCCCCn1[nH]c(C)c(C(=S)SCCCCCCCC)c1=O`, for which the GI50 in the test with DLD-1 is 19.6 µM (inactive); with HOP-18 it was 61.5 µM (inactive); in the test on SNB-78, > 100 µM (inactive); in the test with RXF 631, 75.7 µM (inactive); in the test with DMS-114 it was 26.7 µM (inactive); in the test on DMS-273, 99.5 µM (inactive). The GI50 in the test with XF498 is > 100 µM (inactive); with LXFL 529, 53.2 µM (inactive); in the test with KM-20L2 it was 36.8 µM (inactive).

Take `Cc1csc(CCC(N)C(=O)O)n1` (configuration not stated): the GI50 in the test with DLD-1, in the test with HOP-18, in the test with SNB-78, in the test on DMS-273 and in the test on LXFL 529 was > 100 µM (inactive) in each case.

`O=C(c1nc2ccc([N+](=O)[O-])cc2nc1O)C(O)c1ccc2c(c1)OCO2` (configuration not stated): the GI50 with DLD-1 was > 100 µM (inactive); in the test on HOP-18, > 100 µM (inactive); with DMS-114, 29.5 µM (inactive); in the test on DMS-273, > 100 µM (inactive); with LXFL 529, 71.8 µM (inactive); with KM-20L2 it was 47 µM (inactive).

Turning to `CCC(CC)n1c(C)nc2c1C(=O)c1ccccc1C2=O`, the GI50 in the test with DLD-1 was 24.3 µM (inactive); in the test with SNB-78, 49.7 µM (inactive); with DMS-273, 23.1 µM (inactive); in the test on LXFL 529, 19.5 µM (inactive); with KM-20L2 it was 39.4 µM (inactive).

Take `C=COC(=O)N[C@H]1CCc2cc(OC)c(OC)c(OC)c2-c2ccc(SC)c(=O)cc21`: the GI50 in the test on HOP-18 is > 100 µM (inactive); in the test with SNB-78, < 0.01 µM (active); in the test on DMS-114 it was < 0.01 µM (active); in the test with DMS-273, < 0.01 µM (active); in the test with XF498 it was < 0.01 µM (active); with LXFL 529, < 0.01 µM (active). In addition, the GI50 in the test with KM-20L2 is < 0.01 µM (active).

In the case of `CC1COS(=O)O1` (configuration not stated), the GI50 in the test on DLD-1, in the test with HOP-18, in the test on SNB-78, with DMS-114, in the test with DMS-273 and with XF498 was > 100 µM (inactive) in each case. The GI50 with KM-20L2 is > 100 µM (inactive).

Consider `COC(=O)C(C(=O)C(=O)Nc1nc2ccc([N+](=O)[O-])cc2s1)c1nc2ccc(Cl)cc2nc1O` (configuration not stated), for which the GI50 in the test with DLD-1, in the test on HOP-18, with SNB-78, in the test with RXF 631, with DMS-114 and with DMS-273 was > 100 µM (inactive) each time. The GI50 in the test on LXFL 529 and in the test with KM-20L2 was > 100 µM (inactive) throughout.

For the compound `O=C1CCC(=O)c2c1c(O)c1ccncc1c2O`, the GI50 is 13.7 µM (inactive) with DLD-1; 26.9 µM (inactive) with HOP-18; 23.7 µM (inactive) in the test with SNB-78; 25.4 µM (inactive) with RXF 631; 12 µM (inactive) in the test with DMS-114; 17.3 µM (inactive) with DMS-273. The GI50 with XF498 is 18.4 µM (inactive); in the test on LXFL 529, 16.6 µM (inactive); with KM-20L2, 20.9 µM (inactive).

Regarding `COC(=O)C1=NC(=S)NC(c2ccccc2)C1c1nc2ccccc2o1` (configuration not stated), the GI50 in the test on DLD-1, in the test with HOP-18, in the test with SNB-78, with DMS-114, in the test with XF498 and with LXFL 529 was > 50 µM (inactive) in each case. In addition, the GI50 with KM-20L2 was > 50 µM (inactive).

In the case of `O=C(/C=C/c1ccc(Cl)c(Cl)c1)c1cccc2ccccc12`, the GI50 was 2.49 µM (inactive) in the test with DLD-1; 17.3 µM (inactive) in the test on HOP-18; 11.4 µM (inactive) with SNB-78; 17 µM (inactive) in the test on RXF 631; 2.3 µM (inactive) in the test with DMS-114; 4.05 µM (inactive) in the test with DMS-273. In addition, the GI50 was 2.28 µM (inactive) with LXFL 529 and 5.22 µM (inactive) in the test with KM-20L2.

Take `O=C1c2ccccc2C(=O)c2nc3ccc(Cl)cc3cc21`: the GI50 in the test on DLD-1, with SNB-78, in the test with RXF 631, in the test on DMS-114, with DMS-273 and in the test with XF498 was > 100 µM (inactive) each time. The GI50 with LXFL 529 and with KM-20L2 was > 100 µM (inactive) in each case.

On to `N#C/C(=C\c1ccc2ccccc2c1)c1ccccc1`, for which the GI50 was 25.7 µM (inactive) in the test with DLD-1; 22.1 µM (inactive) in the test on HOP-18; 28.1 µM (inactive) with SNB-78; 30.5 µM (inactive) in the test on RXF 631; 14 µM (inactive) in the test with DMS-273; 29.4 µM (inactive) with LXFL 529. Also, the GI50 with KM-20L2 is 15.6 µM (inactive).

For the compound `Cc1ccc(/N=N/c2ccc(N(CCC#N)CCC#N)cc2C)c(Br)c1`, the GI50 in the test with DLD-1 was 13.7 µM (inactive); with HOP-18 it was 15.6 µM (inactive); with SNB-78 it was 24.7 µM (inactive); in the test on RXF 631 it was 4.35 µM (inactive); with DMS-114, 12.8 µM (inactive); with DMS-273, 10 µM (inactive). In addition, the values for the GI50 in the test on XF498 and in the test on LXFL 529 were 9.08 µM (inactive) and 20 µM (inactive), respectively.

As for `COc1nc(NC2OC(COC(C)=O)C(OC(C)=O)C(OC(C)=O)C2OC(C)=O)c(-c2csc(N)n2)c(=O)n1C` (configuration not stated), the GI50 in the test on DLD-1 was 52.7 µM (inactive); in the test with HOP-18, 39.4 µM (inactive); in the test on SNB-78, 62.2 µM (inactive); with DMS-114, 53.5 µM (inactive); in the test with LXFL 529 it was 70 µM (inactive); in the test with KM-20L2 it was > 100 µM (inactive).

In the case of `O=C1OC(=O)c2c1c(-c1ccccc1)cn2-c1ccc(Cl)cc1`, the GI50 in the test on DLD-1 was > 100 µM (inactive); with HOP-18 it was > 100 µM (inactive); in the test on SNB-78, > 100 µM (inactive); in the test on RXF 631 it was > 100 µM (inactive); with DMS-114, 77.3 µM (inactive); with DMS-273, 8.77 µM (inactive). Also, the GI50 with XF498 was > 100 µM (inactive); with LXFL 529 it was 5.94 µM (inactive); with KM-20L2 it was 22.1 µM (inactive).

With `O=C1C=CC(=O)c2c1cc1ccccc1c2O`, the GI50 is 1.66 µM (inactive) with DLD-1; 18.2 µM (inactive) with HOP-18; 3.78 µM (inactive) with SNB-78; 12.7 µM (inactive) in the test with DMS-273; 3.01 µM (inactive) in the test on XF498; 1.9 µM (inactive) in the test with LXFL 529. Also, the GI50 with KM-20L2 was 19 µM (inactive).

Regarding `Cc1ccc(NC(=O)CCC(CC(=O)C(C)(C)C)=NNC(=O)C(=O)NN)cc1C`, the GI50 in the test on DLD-1 is > 100 µM (inactive); with HOP-18 it was > 100 µM (inactive); in the test on DMS-273, > 100 µM (inactive); with XF498, 64.4 µM (inactive); with LXFL 529 it was > 100 µM (inactive); with KM-20L2, > 100 µM (inactive).

Regarding `COc1nc(C(Cl)(Cl)Cl)c(Cl)c(OC)c1Cl` [PENCLOMEDINE], the GI50 in the test on DLD-1 is 42.6 µM (inactive); in the test on HOP-18, 36.1 µM (inactive); in the test with SNB-78, 37.1 µM (inactive); with RXF 631, 17.6 µM (inactive); with DMS-114, 25.4 µM (inactive); in the test on DMS-273, 40.4 µM (inactive). Besides, the GI50 in the test with XF498 is 25.3 µM (inactive); in the test on KM-20L2 it was 47 µM (inactive).
